Data reported in patent US9290788B2, “Device for determining or studying the state of stimulation of the natural defences of plants or portions of plants” (Institut National De La Recherche Agronomique, priority 2010, dated 2016).
Values joined by “and” are separate entries in the source; they are usually repeats but may differ in a detail not shown here. Identical values can stand only once.

Key:
[1] = tested on: 28 target genes (defense genes) in apple tree leaves; test: Test 2: analysis of defenses, expression of the 28 genes (qPCR) in apple tree seedlings sprayed with 10 NDS candidates, with or without hydrogen peroxide; assay type: in vivo, apple tree seedlings (Golden Delicious)
[2] = tested on: 28 target genes (defense genes) in apple tree leaves; test: Test 1: relative expression of the 28 defense genes (qPCR, ΔΔCt) in apple tree seedling leaves subjected to NDS treatments and abiotic stresses; assay type: in vivo, apple tree seedlings (Golden Delicious); conditions: for effect on the modulation of target gene expression (in words): Test 1; for Relative expression of ANS / Relative expression of PAL / Relative expression of PR-15 / Relative expression of PR-1 / Relative expression of PR-5 / Relative expression of PR-2 / Relative expression of PR-4 / Relative expression of PR-8 / Relative expression of PR-14: vs water control
[3] = tested on: fire blight (Erwinia amylovora); conditions: Test 1, controlled conditions
[4] = +H2O2, J2, relative to water control
[5] = +H2O2, J3, relative to water control
[6] = +H2O2 (sprayed 24 hours after treatment), J2
[7] = +H2O2 (sprayed 24 hours after treatment), J3
[8] = −H2O2, J2, relative to water control
[9] = −H2O2, J3, relative to water control
[10] = abiotic stress, J2, relative to water control
[11] = abiotic stress, J3, relative to water control

## OO [H202]
[1]; J2 + H2O2
  ACCO expression: 0.60
  APOX expression: −0.37
  CAD expression: −0.32
  CSL expression: 2.28
  CalS expression: −0.31
  EDS1 expression: 1.12
  EIN3 expression: −0.20
  FAR expression: 1.07
  GST expression: 0.21
  JAR expression: −0.62
  LOX2 expression: −0.39
  PECT expression: 0.01
  POX expression: 2.12
  WRKY expression: 1.42
[1]; J3 + H2O2
  ACCO expression: 0.37
  APOX expression: 0.36
  CAD expression: 0.30
  CSL expression: 1.32
  CalS expression: 0.04
  EDS1 expression: 1.44
  EIN3 expression: 0.33
  FAR expression: 0.12
  GST expression: 0.30
  JAR expression: 0.09
  LOX2 expression: −0.03
  PECT expression: 1.53
  POX expression: 1.61
  WRKY expression: 1.27

## CC(N)CC(=O)O (racemic) [Baba, DL-β-amino-n-butyric acid]
[2]; [4]
  Relative expression APOX (log base 2): 1.49 and 1.76
  Relative expression JAR (log base 2): −0.44 and −0.16
  Relative expression POX (log base 2): 2.20 and 2.28
[2]; [5]
  Relative expression CAD (log base 2): −0.15 and −0.29
  Relative expression CalS (log base 2): 2.10 and 1.88
[2]; H2O2 sprayed 24 hours after treatment
  direct stimulator versus potentiator: gene expression after additional H2O2 treatment: triggers the expression of some genes (POX, Pect, for example)
[2]
  effect on the modulation of target gene expression (in words): little effect on the modulations of genes
[2]; [6]
  Relative expression of ANS: 1.41 log2 and 2.12 log2
  Relative expression of PAL: 0.29 log2 and 0.55 log2
  Relative expression of PR-15: 0.84 log2 and 0.71 log2
[2]; [7]
  Relative expression of PR-1: 2.71 log2 and 1.77 log2
  Relative expression of PR-5: 1.91 log2 and 1.34 log2
  Relative expression of PR-15: 1.46 log2 and 2.06 log2
[2]; −H2O2, J2
  Relative expression of ANS: 1.28 log2 and 1.53 log2
  Relative expression of PAL: 0.42 log2 and 0.27 log2
[2]; −H2O2, J3
  Relative expression of PAL: 0.20 log2 and 0.29 log2
[2]; [8]
  Relative expression CHS (log base 2): 0.27 and 0.29
  Relative expression DFR (log base 2): 0.64 and 0.93
  Relative expression GST (log base 2): −0.05 and −0.34
[2]; [9]
  Relative expression CHS (log base 2): 0.19 and 0.31
  Relative expression FPPS (log base 2): 0.46 and 0.56
[3]
  protection against fire blight: no protective effect against fire blight

## CC/C=C\CC1C(=O)CCC1CC(=O)OC (centres unmarked) [MeJA, methyl jasmonate]
[2]; [4]
  Relative expression ACCO (log base 2): 3.48
  Relative expression APOX (log base 2): 1.87
  Relative expression CAD (log base 2): 0.70
  Relative expression CHS (log base 2): 3.73
  Relative expression CSL (log base 2): 2.26
  Relative expression CalS (log base 2): 0.48
  Relative expression DFR (log base 2): 3.43
  Relative expression EDS1 (log base 2): −0.17
  Relative expression EIN3 (log base 2): 2.54
  Relative expression FPPS (log base 2): −0.07
  Relative expression Far (log base 2): 0.74
  Relative expression GST (log base 2): 0.47
  Relative expression HMGR (log base 2): −0.38
  Relative expression JAR (log base 2): 0.73
  Relative expression LOX2 (log base 2): 1.51
  Relative expression POX (log base 2): 2.84
  Relative expression PPO (log base 2): 0.80
  Relative expression Pect (log base 2): −2.02
  Relative expression WRKY (log base 2): −0.06
[2]; [5]
  Relative expression ACCO (log base 2): 2.28
  Relative expression APOX (log base 2): 2.11
  Relative expression CAD (log base 2): 0.35
  Relative expression CHS (log base 2): 1.47
  Relative expression CSL (log base 2): 1.46
  Relative expression CalS (log base 2): 1.48
  Relative expression DFR (log base 2): 1.36
  Relative expression EDS1 (log base 2): 0.98
  Relative expression EIN3 (log base 2): 1.80
  Relative expression FPPS (log base 2): 0.43
  Relative expression Far (log base 2): 0.39
  Relative expression GST (log base 2): 0.87
  Relative expression HMGR (log base 2): 0.60
  Relative expression JAR (log base 2): 1.61
  Relative expression LOX2 (log base 2): 1.99
  Relative expression POX (log base 2): 4.29
  Relative expression PPO (log base 2): 1.23
  Relative expression Pect (log base 2): 2.16
  Relative expression WRKY (log base 2): 3.46
[2]; [6]
  Relative expression of ANS: 3.29 log2
  Relative expression of PAL: 3.36 log2
  Relative expression of PR-1: 0.40 log2
  Relative expression of PR-2: 3.89 log2
  Relative expression of PR-4: 1.25 log2
  Relative expression of PR-5: −2.09 log2
  Relative expression of PR-8: 1.41 log2
  Relative expression of PR-14: −0.64 log2
  Relative expression of PR-15: 3.20 log2
[2]; [7]
  Relative expression of ANS: 1.44 log2
  Relative expression of PAL: 2.01 log2
  Relative expression of PR-1: 2.84 log2
  Relative expression of PR-2: 0.68 log2
  Relative expression of PR-4: 2.84 log2
  Relative expression of PR-5: −1.22 log2
  Relative expression of PR-8: 1.51 log2
  Relative expression of PR-14: 3.68 log2
  Relative expression of PR-15: 2.77 log2
[2]; −H2O2, J2
  Relative expression of ANS: 2.31 log2
  Relative expression of PAL: 3.17 log2
  Relative expression of PR-1: 1.56 log2
  Relative expression of PR-2: 4.03 log2
  Relative expression of PR-4: 2.68 log2
  Relative expression of PR-5: −0.59 log2
  Relative expression of PR-8: 1.85 log2
  Relative expression of PR-14: 3.45 log2
  Relative expression of PR-15: −0.19 log2
[2]; −H2O2, J3
  Relative expression of ANS: 1.58 log2
  Relative expression of PAL: 1.66 log2
  Relative expression of PR-1: 2.35 log2
  Relative expression of PR-2: 3.69 log2
  Relative expression of PR-4: 2.63 log2
  Relative expression of PR-5: 1.49 log2
  Relative expression of PR-8: 1.00 log2
  Relative expression of PR-14: 5.09 log2
  Relative expression of PR-15: 1.21 log2
[2]; [8]
  Relative expression ACCO (log base 2): 1.92
  Relative expression APOX (log base 2): −3.00
  Relative expression CAD (log base 2): 1.52
  Relative expression CHS (log base 2): 2.97
  Relative expression CSL (log base 2): 2.29
  Relative expression CalS (log base 2): 0.05
  Relative expression DFR (log base 2): 2.92
  Relative expression EDS1 (log base 2): 1.91
  Relative expression EIN3 (log base 2): 3.82
  Relative expression FPPS (log base 2): 0.00
  Relative expression Far (log base 2): 2.34
  Relative expression GST (log base 2): 1.00
  Relative expression HMGR (log base 2): 1.49
  Relative expression JAR (log base 2): 1.25
  Relative expression LOX2 (log base 2): 1.60
  Relative expression POX (log base 2): 0.66
  Relative expression PPO (log base 2): 1.28
  Relative expression Pect (log base 2): 0.98
  Relative expression WRKY (log base 2): 1.25
[2]; [9]
  Relative expression ACCO (log base 2): 1.96
  Relative expression APOX (log base 2): 0.95
  Relative expression CAD (log base 2): 0.01
  Relative expression CHS (log base 2): 1.22
  Relative expression CSL (log base 2): 1.81
  Relative expression CalS (log base 2): 1.14
  Relative expression DFR (log base 2): 1.55
  Relative expression EDS1 (log base 2): 1.22
  Relative expression EIN3 (log base 2): 1.22
  Relative expression FPPS (log base 2): 0.13
  Relative expression Far (log base 2): 1.51
  Relative expression GST (log base 2): −0.15
  Relative expression HMGR (log base 2): 1.16
  Relative expression JAR (log base 2): 0.63
  Relative expression LOX2 (log base 2): 1.45
  Relative expression POX (log base 2): 3.86
  Relative expression PPO (log base 2): 0.78
  Relative expression Pect (log base 2): 3.87
  Relative expression WRKY (log base 2): 0.85

## OO [H2O2, hydrogen peroxide]
[2]
  effect on the modulation of target gene expression (in words): only slightly modulate the target gene expressions
[2]; [10]
  Relative expression APOX (log base 2): 0.41 and 0.38
  Relative expression DFR (log base 2): 0.50 and 0.80
  Relative expression EIN3 (log base 2): 1.44 and 1.53
  Relative expression POX (log base 2): 1.07 and 1.06
  Relative expression WRKY (log base 2): −0.04 and −0.12
[2]; [11]
  Relative expression CAD (log base 2): −0.72 and −0.54
  Relative expression GST (log base 2): 0.33 and 0.40
  Relative expression LOX2 (log base 2): 0.16 and 0.42
[2]; abiotic stress treatment, J2
  Relative expression of PR-2: 4.75 log2 and 3.92 log2
  Relative expression of PR-4: 2.53 log2 and 4.27 log2
  Relative expression of PR-8: 0.83 log2 and 0.79 log2
[2]; abiotic stress treatment, J3
  Relative expression of PR-2: 2.36 log2 and 3.38 log2
[1]; J2 + H2O2
  ANS expression: −0.63
  CHS expression: −0.80
  DFR expression: −0.65
  FPPS expression: 0.06
  HMGR expression: 1.05
  PAL expression: −0.56
  PPO expression: 1.20
  PR1 expression: 0.85
  PR2 expression: 3.69
  PR4 expression: 3.89
  PR5 expression: 0.91
  PR8 expression: 2.12
  PR14 expression: 1.32
  PR15 expression: −0.26
[1]; J3 + H2O2
  ANS expression: −0.49
  CHS expression: −0.75
  DFR expression: −0.36
  FPPS expression: 0.08
  HMGR expression: 0.14
  PAL expression: −0.57
  PPO expression: 0.71
  PR1 expression: 1.41
  PR2 expression: 4.05
  PR4 expression: 2.59
  PR5 expression: 1.73
  PR8 expression: 1.73
  PR14 expression: 3.29
  PR15 expression: 1.57
